Entries after “also recorded” stand apart in the source; their conditions may differ.
Columns and labels:
[1] = tested on: Biomphalaria glabrata FMRF-NH2 gated sodium channel (Bgl-FaNaC); test: Two-electrode voltage clamp of Bgl-FaNaC heterologously expressed in Xenopus oocytes; format: cell-based; settings: peptide 1 mM (given for FLRF-NH2, pQFYRI-NH2, FIRF-NH2; not given for GDPFLRF-NH2); oocyte voltage clamp -60 mV
Method: The cDNA encoding the Bgl-FaNaC sequence was codon-optimized for Xenopus laevis and synthesized by Integrated DNA Technologies (IDT, Coralville IA). The Flag-tag protein affinity sequence (DYKDDDDK; Sigma-Aldrich) was added to the N-terminal to enable confirmation of expression. The cDNA was subcloned into the Xenopus expression vector pGEM HE as described previously. The Bgl-FaNaC full-length RNA was transcribed in vitro, capped and polyadenylated using the T7 mScript Standard mRNA Production System (CellScript, Madison WI).
Oocytes were obtained from dissected ovaries of adult Xenopus laevis specimens (Xenopus Express, Brooksville FL). They were dispersed with type II collagenase and manually defolliculated. RNA injections were performed in pre-selected oocytes from stages V and VI. Oocytes were injected with 38.6 nL of Bgl-FaNaC encoding RNA at a concentration of 20 ng/uL using a Nanoliter 2000 microinjector (World Precision Instruments, Sarasota FL).
Injected oocytes were placed at the bottom of a plastic recording chamber (3 ml volume) lined with a nylon mesh and continuously perfused with ND96 (96 mM NaCl, 2 mM KCl, 1.8 mM CaCl2, 1 mM MgCl2, 5 mM HEPES, pH 7.6; see detailed methods in [38]). An OC725B oocyte clamp (Warner Instruments LLC., Hamden CT) was used to clamp the membrane potential at -60 mV with independent microelectrodes for recording (0.1 M potassium chloride) and passing current (3 M potassium chloride). Data were acquired on a Digidata 1200 interface with Clampex (V.6) and analyzed with AxoScope 10.7 (Axon Instruments, Union City CA). All experiments were carried out at room temperature (20–25°C).
Synthetic FMRF-NH2, FLRF-NH2, FIRF-NH2, pQFYRI-NH2, and GDPFLRF-NH2 peptides (>90% purity) were purchased from GL Biochem (Shanghai, China). All peptides were dissolved in ND96 in a stock of 1 mM. Peptide stocks were frozen at -20°C and serial dilutions were freshly prepared before each experiment. Peptides were applied manually using a pipettor (1 mL, upstream from the oocyte).

[2] = tested on: Planorbella FaNaC; parameters: method as in PMID 10878095; settings: cited from earlier work
[3] = tested on: Cornu aspersum FaNaC; parameters: method as in PMID 7501021; settings: cited from earlier work

Compound | Current response to related peptide application [1] | also measured
GDPFLRF-NH2 [Synthetic heptapeptide, product of the heptapeptide precursor Bgl-FaRP2] | No currents; also recorded: No response was elicited | 
FLRF-NH2 [Synthetic related peptide encoded on the Biomphalaria FMRF-NH2 precursor] | No currents; also recorded: No response was detected | Response of FaNaC to peptide [2]: negligible; EC50 ([3]; C. aspersum FaNaC, read-out: EC50 for FaNaC activation): 11 µM
FIRF-NH2 [Synthetic peptide encoded on the tetrapeptide precursor Bgl-FaRP1] | No currents | 
pQFYRI-NH2 [Synthetic peptide encoded on the tetrapeptide precursor Bgl-FaRP1] | No currents | 
N=C(N)NC(=O)c1nc(Cl)c(N)nc1N [amiloride] |  | Effect of amiloride on FaNaC responses to FMRF-NH2 [2]: potentiates responses to FMRF-NH2; Effect of amiloride on FaNaC ([3]; FaNaC of Cornu aspersa): blocks

From article PMC10325066, “The FMRF-NH2 gated sodium channel of Biomphalaria glabrata: Localization and expression following infection by Schistosoma mansoni” (PLOS Neglected Tropical Diseases, 2023)
